Values quoted from earlier work as cited in US9446032B2, “Methods for treating cardiovascular disorders” (WOCKHARDT LIMITED, priority 2011, dated 2016).

Columns and labels:
[1] = incomplete owing to extensive first pass metabolism

Row | SMILES | solubility (BCS) | bioavailability [1] | solubility in ethanol (ethanol) | solubility in water (water)
1 | COCCc1ccc(OCC(O)CNC(C)C)cc1 (stereo not shown) [Metoprolol] | highly soluble | about 50% |  | 
2 | CCOC(=O)C1=C(COCCN)NC(C)=C(C(=O)OC)C1c1ccccc1Cl (stereo not shown) [Amlodipine besylate] |  |  | sparingly soluble | slightly soluble
